Source: ChEMBL document CHEMBL3769402, “Discovery of novel N,N-3-phenyl-3-benzylaminopropionanilides as potent inhibitors of cholesteryl ester transfer protein in vivo” (Bioorg Med Chem, 2016)

How the values were obtained:
[1] = biological target: T1, Cholesteryl ester transfer protein (Homo sapiens, UniProt P11597); experiment: Inhibition of full-length human recombinant CETP expressed in CHO cells by BODIPY-CE dye based fluorescence assay; format: cell-based
T1 sequence (P11597 whole entry): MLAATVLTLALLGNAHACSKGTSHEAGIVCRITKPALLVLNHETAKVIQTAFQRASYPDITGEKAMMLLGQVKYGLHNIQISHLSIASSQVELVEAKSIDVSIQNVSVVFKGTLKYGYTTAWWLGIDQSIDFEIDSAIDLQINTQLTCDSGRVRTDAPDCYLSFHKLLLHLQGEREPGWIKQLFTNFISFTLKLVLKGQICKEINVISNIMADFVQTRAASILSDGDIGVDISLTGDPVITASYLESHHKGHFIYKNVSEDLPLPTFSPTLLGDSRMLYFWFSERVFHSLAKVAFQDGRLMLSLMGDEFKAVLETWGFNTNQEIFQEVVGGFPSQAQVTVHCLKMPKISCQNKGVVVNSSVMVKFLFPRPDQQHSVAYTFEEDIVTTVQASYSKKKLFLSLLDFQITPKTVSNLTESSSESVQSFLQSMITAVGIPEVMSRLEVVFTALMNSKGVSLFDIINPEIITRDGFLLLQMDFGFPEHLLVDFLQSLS

Syrian golden hamster [2] = experiment: Decrease in LDL-cholesterol level in high cholesterol/lipid diet fed golden syrian hamster at 50 mg/kg/day, po for 4 weeks; format: functional; settings: Mesocricetus auratus, 672 h
Syrian golden hamster [3] = experiment: Decrease in LDL-cholesterol level in high cholesterol/lipid diet fed po dosed golden syrian hamster administered daily for 4 weeks; format: functional, organism-based; settings: Mesocricetus auratus
Syrian golden hamster [4] = experiment: Decrease in LDL-cholesterol level in high cholesterol/lipid diet fed golden syrian hamster at 100 mg/kg/day, po for 4 weeks; format: functional; settings: Mesocricetus auratus, 672 h
Syrian golden hamster [5] = experiment: Increase in HDL-cholesterol level in high cholesterol/lipid diet fed golden syrian hamster at 50 mg/kg/day, po for 4 weeks; format: functional, Mesocricetus auratus
CYP450 [6] = experiment: Drug metabolism in KM rat liver microsomes assessed as CYP450 mediated compound oxidation at 100 uM after 17.1 min by LC-MS/MS analysis in presence of NADPH; format: ADME; settings: read-out: Drug metabolism
Syrian golden hamster [7] = experiment: Toxicity in golden syrian hamster assessed as mortality at 20 to 100 mg/kg/day, po for 4 weeks; format: organism-based, Mesocricetus auratus; settings: in vivo, 672 h
Syrian golden hamster [8] = experiment: Increase in HDL-cholesterol level in high cholesterol/lipid diet fed golden syrian hamster at 20 mg/kg/day, po for 4 weeks; format: functional, Mesocricetus auratus
Syrian golden hamster [9] = experiment: Increase in HDL-cholesterol level in high cholesterol/lipid diet fed golden syrian hamster at 100 mg/kg/day, po for 4 weeks; format: functional, Mesocricetus auratus
Syrian golden hamster [10] = experiment: Increase in HDL-cholesterol level in high cholesterol/lipid diet fed po dosed golden syrian hamster administered daily for 4 weeks; format: functional, organism-based; settings: Mesocricetus auratus
CYP450 [11] = experiment: Drug metabolism in KM rat liver microsomes assessed as CYP450 mediated compound reduction at 100 uM after 17.1 min by LC-MS/MS analysis in presence of NADPH; format: ADME; settings: read-out: Drug metabolism
Syrian golden hamster [12] = experiment: Decrease in LDL-cholesterol level in high cholesterol/lipid diet fed golden syrian hamster at 20 mg/kg/day, po for 4 weeks; format: functional; settings: Mesocricetus auratus, 672 h

Row | Structure (SMILES) | IC50 [1] [µM] | other results
1 | CCOC(=O)c1ccc(NC(=O)CCN(Cc2ccc(F)cc2)c2cccc(Oc3ccccc3)c2)cc1 | 0.24 | 
2 | COc1ccc(N2CCN(C(=O)CCN(Cc3ccc(F)cc3)c3ccc(Cl)c(Cl)c3)CC2)cc1 | 4.9 | 
3 | CCOC(=O)c1ccc(NC(=O)CCN(Cc2ccc(F)cc2)c2cc(Cl)cc(-c3ccccc3)c2)cc1 | 3.4 | 
4 | CCOC(=O)c1ccc(NC(=O)CCN(c2cc(Cl)cc(-c3ccccc3)c2)S(=O)(=O)c2ccc(F)cc2)cc1 | 2.3 | 
5 | CCOC(=O)c1ccc(N2CCN(C(=O)CCN(Cc3ccc(C(F)(F)F)cc3)c3ccc(Cl)c(Cl)c3)CC2)cc1 | 18.2 | 
6 | CCOC(=O)c1ccc(N2CCN(C(=O)CCN(Cc3ccc(F)cc3)c3ccc(Cl)c(Cl)c3)CC2)cc1 | 12.4 | 
7 | CCOC(=O)c1ccc(NC(=O)CCN(c2cccc(Oc3ccccc3)c2)S(=O)(=O)c2ccc(F)cc2)cc1 | 0.15 | inhibition in vivo at 50 mg/kg/day (Syrian golden hamster [2]): 36.2%; inhibition (Syrian golden hamster [3]): Dose-dependent effect; inhibition in vivo at 100 mg/kg/day (Syrian golden hamster [4]): 45.8%; Activity (Syrian golden hamster [5]): 34.7%; metabolised at 0.285 h, 100 µM (CYP450 [6]): 36%; Activity (Syrian golden hamster [7]): Non-toxic; Activity (Syrian golden hamster [8]): 16.2%; Activity (Syrian golden hamster [9]): 48.2%; Activity (Syrian golden hamster [10]): Dose-dependent effect; metabolised at 0.285 h, 100 µM (CYP450 [11]): 36%; inhibition in vivo at 20 mg/kg/day (Syrian golden hamster [12]): 19.3%
8 | CCOC(=O)c1ccc(NC(=O)CCN(Cc2cc(C(F)(F)F)cc(C(F)(F)F)c2)c2ccc(Cl)c(Cl)c2)cc1 | 5.4 | 
9 | CCOC(=O)c1ccc(N2CCN(C(=O)CCN(Cc3ccc(F)cc3)c3ccc(Oc4ccccc4)cc3)CC2)cc1 | 6.7 | 
10 | CCOC(=O)c1ccc(NC(=O)CCN(c2ccc(Cl)c(-c3ccccc3)c2)S(=O)(=O)c2ccc(F)cc2)cc1 | 1.3 | 
11 | CCOC(=O)c1ccc(N2CCN(C(=O)CCN(Cc3ccc(F)cc3)c3cccc(Oc4ccccc4)c3)CC2)cc1 | 0.69 | 
12 | CCOC(=O)c1ccc(NC(=O)CCN(Cc2ccc(F)cc2)c2ccc(Cl)c(Cl)c2)cc1 | 2 | 
13 | COc1ccc(N2CCN(C(=O)CCN(Cc3ccc(F)cc3)c3ccc(Oc4ccccc4)cc3)CC2)cc1 | > 50 | 
14 | O=C(CCN(Cc1ccc(F)cc1)c1ccc(Cl)c(Cl)c1)Nc1ccc(C(=O)O)cc1 | 9.1 | 
15 | CCOC(=O)c1ccc(NC(=O)CCN(Cc2ccc(F)cc2)c2ccc(Cl)c(-c3ccccc3)c2)cc1 | 2.7 | 
16 | CCOC(=O)c1ccc(NC(=O)CCN(Cc2ccc(C(F)(F)F)cc2)c2ccc(Cl)c(Cl)c2)cc1 | 9.5 | 
17 | CCOC(=O)c1ccc(NC(=O)CCN(Cc2ccc(F)cc2)c2ccc(-c3ccccc3)cc2)cc1 | 16.7 | 
18 | CCOC(=O)c1ccc(N2CCN(C(=O)CCN(Cc3ccc(F)cc3)c3ccc(Cl)c(-c4ccccc4)c3)CC2)cc1 | 2.9 | 
